Laboratory results taken from EP2165698B1, “Cosmetic composition designed to protect damaged skin” (Universkin, priority 2008, dated 2016).
Where a SMILES comes first, the peptide text is derived from it.

Key:
[1] = system: kératinocytes de lignée NCTC
[2] = system: Fibroblastes de lignée MRC5
[3] = system: fibroblastes de lignée humaine; experiment: Production of extracellular matrix (MEC) proteins by fibroblasts, immunofluorescence / confocal microscopy; conditions: tripeptide-1 à 10^-7M vs culture without peptide
Description: Exemple 1 Etude du tripeptide-1® sur la production de protéines de la MEC par les fibroblastes par immunofluorescence.
• ▪ Matériel : fibroblastes de lignée humaine. • ▪ Protocole : les fibroblastes sont mis en culture en présence ou en absence du tripeptide-1® à 10^-7M. • ▪ Etude microscopique par microscopie confocale.

Compound	acide EPA dans les cellules de kératinocytes [1]	acide alpha-linolénique dans le surnageant [1]	acide alpha-linolénique dans les cellules de kératinocytes [1]	acides EPA et DHA dans le surnageant [1]	acide alpha-linolénique dans le surnageant [2]	acides EPA et DHA dans le milieu surnageant [2]	AUGMENTATION % - Collagène de type I [3]	AUGMENTATION % - Collagène de type II [3]	AUGMENTATION % - Elastine [3]	AUGMENTATION % - Fibronectine [3]	AUGMENTATION % - Laminine [3]
CC/C=C\C/C=C\C/C=C\CCCCCCCC(=O)O [acide alpha-linolénique]	apparition de l'acide EPA	aucune trace	quantités importantes	Apparition des acides EPA et DHA	plus faible quantité que la quantité de départ	Apparition des acides EPA et DHA	–	–	–	–	–
NCCCC[C@H](NC(=O)[C@H](Cc1c[nH]cn1)NC(=O)CN)C(=O)O [tripeptide-1, H-Gly-His-Lys-OH] (H-Gly-His-Lys-OH)	–	–	–	–	–	–	+ 305%	+ 105%	+ 15%	+ 155%	+ 85%
